Results taken from patent publication US20240299335A1, “SHELF-STABLE FORMULATIONS OF BENZOYL PEROXIDE AND METHODS OF PRODUCING SAME” (BLUE HILL TECHNOLOGIES LLC, priority 2022, published 2024).
“Also recorded” adds a separate entry of the source.

Legend:
Type in all cases: physicochemical
[1] = Effect of antioxidants on benzene levels in 10% w/v benzoyl peroxide formulations (headspace GC-MS); details: 10% w/v benzoyl peroxide plus antioxidant
Description: Agilent 7890B Gas Chromatography (GC) system equipped with 7697A headspace autosampler coupled with 5977B Mass Selective Detector (MS) was used for sample analysis, and a DB-Select 624 UI, 60 m×0.32 mm×1.8 μm GC column (Agilent Technology, Santa Clara, CA) was used to separate benzene from other compounds. Dimethyl sulfoxide (DMSO, GC Headspace Grade) was used for sample preparation (Thermo Fisher Scientific, Waltham, MA). All certified reference standards, solution, and buffer reagents including sodium citrate dihydrate, citric acid, tris, and glycerol were sourced from Sigma-Aldrich, St. Louis, MO.
For benzoyl peroxide stability studies in glycerol, benzoyl peroxide was prepared in a stock suspension of 20% w/v in glycerol and mixed 1:1 with 20% w/v suspensions or v/v solutions of antioxidants in glycerol. For pH experiments, the same stock suspension of benzoyl peroxide was mixed 1:1 with a 50% glycerol solution with 200 mM buffering agent (Citrate buffer pH 3.0, Tris Buffer pH 7.0, or Tris Buffer pH 9.0) for final 75% glycerol solution. The final volume of all reactions was 100 μL in GC headspace vials with 10% solution benzoyl peroxide (10 mg) and 10% antioxidant or 100 mM buffering agent. Vials were immediately crimp sealed for incubation. For analysis, 4.9 mL of DMSO was added to make up the final volume to approximate 5 mL, crimp sealed, and gently vortexed to mix.
Benzene standard was diluted in DMSO for an 11-point calibration ranging from 10 ng/vial to 100 μg/vial. The coefficient of determination R^2 were greater than 0.999. Five (5) mL of DMSO was used for negative control samples.
Benzoyl peroxide products in original packaging were incubated for up to one month at 25° C., 37° C., or 50° C. and sampled periodically. Benzoyl peroxide and products with antioxidant additions or buffering agent additions were prepared and incubated in crimp sealed GC headspace vials.
The method USP <467> Residual Solvents Procedure A was modified from flame ionization detection (FID) to mass spectrometry (MS) detection for benzene in benzoyl peroxide products. The gas chromatography (GC) methods were also modified to allow shorter run time and the method was validated for addition of up to 500 mg benzoyl peroxide product or […] glycerol. Identification of benzene was based on the retention time matching to certified reference standards and mass spectral m/z matching to benzene. Lower limit of detection (LLOD) was 10 ng (equivalent to 0.02 ppm in hand benzoyl peroxide products) and LLOQ was 25 μg. The measurement uncertainty was determined to be 20%.
10% w/v benzoyl peroxide formulations were prepared. […]

[2] = Effect of antioxidants on benzene levels in FDA-approved benzoyl peroxide drug products (headspace GC-MS); details: antioxidant added to commercial drug products; 50° C. for 2 days; FIG. 5
Description: (§1) The method USP <467> Residual Solvents Procedure A was modified from flame ionization detection (FID) to mass spectrometry (MS) detection for benzene in benzoyl peroxide products. […] Identification of benzene was based on the retention time matching to certified reference standards and mass spectral m/z matching to benzene.

[3] = Benzene levels formed by crystalline benzoyl peroxide on incubation (headspace GC-MS); details: incubated at 50° C. for up to 12 days; FIG. 11
Description: as §1

[4] = Effect of solvents on benzene levels in 10% w/v benzoyl peroxide formulations (headspace GC-MS); details: 10% benzoyl peroxide in the solvent; 37° C. for 10 days; compared to glycerol or NMP; FIG. 8
Method: as §1
10% w/v benzoyl peroxide formulations were prepared. […] Benzene levels in each formulation were tested at various time points according to the protocols described in Example 1.

[5] = 37° C. for up to two weeks, FIG. 3
[6] = 50° C. for up to two weeks, FIG. 4

Compound | levels of benzene formed in the formulations [1, 5] | levels of benzene formed in the formulations [1, 6] | levels of benzene formed in two FDA-approved drug products with added antioxidant [2] | levels of benzene formed in the formulations [4] | also measured
Cc1cc(C(C)(C)C)c(O)c(C(C)(C)C)c1 [BHT, butylated hydroxytoluene] | reduced the levels of benzene; also recorded: most dramatic reduction | reduced the levels of benzene; also recorded: most dramatic reduction | reduce the degradation of benzoyl peroxide to benzene |  | 
CC(=O)Oc1c(C)c(C)c2c(c1C)CCC(C)(CCC[C@H](C)CCC[C@H](C)CCCC(C)C)O2 (stereo partly drawn) [vitamin E acetate] | reduced the levels of benzene | reduced the levels of benzene |  |  | 
O=C(OOC(=O)c1ccccc1)c1ccccc1 [crystalline benzoyl peroxide, benzoyl peroxide] |  |  |  |  | levels of benzene formed [3]: may be protected from forming benzene levels
CC(C)(C)c1cc(O)ccc1O [TBHQ, tert-butyl hydroquinone] |  |  | reduce the degradation of benzoyl peroxide to benzene |  | 
C[S+](C)[O-] [DMSO, dimethylsulfoxide] |  |  |  | most dramatic reduction in, or complete prevention of, benzene levels | 
O [water] |  |  |  | most dramatic reduction in, or complete prevention of, benzene levels | 
